Source: patent US11464782B2, “Method of treating pain or interstitial cystitis using indole compound” (Japan Tobacco Inc., priority 2018, dated 2022)

Tests used:
[1] = system: subjects with active rheumatoid arthritis; test: Pain evaluation in rheumatoid arthritis human clinical trial (pain NRS); assay type: in vivo
Method: Compound A was evaluated in a multicenter, randomized, double-blind, placebo-controlled, parallel-group study in subjects with active rheumatoid arthritis. Subjects were randomized to receive orally placebo or an amount of monohydrochloride Compound A sufficient to provide 50 mg, 100 mg, 150 mg, or 200 mg of free form, once daily for 12 weeks.
Pain was evaluated using a Numerical Rating Scale (NRS) by subjects. The pain NRS represents the severity of their arthritis pain during the past 3 days using an 11-point scale from 0 (no pain) to 10 (maximum pain). An evaluation was made of how much NRS decreased from baseline NRS after drug administration.
Data from EOT (end of treatment), at 2 weeks, and at 12 weeks was obtained. EOT is a measurement point generally used in clinical studies. In a 12-week study, it refers to all analysis at the 12-week time point. However, since some subjects will have discontinued the study midway, the data at the time of discontinuation is treated as the EOT for these subjects (for example, data for week 8 is used as EOT for subjects who discontinued in week 8). 2-week (subjects who completed 2 weeks in full) and 12-week (subjects who completed 12 weeks in full) data are also presented.
Change in pain NRS was evaluated in two subgroups of patients, those with higher baseline pain levels (median baseline pain NRS≥8.0) and those with lower baseline pain levels (median baseline pain NRS<8.0). […] Although the magnitude of decrease in pain NRS was different between lower and higher baseline pain NRS subgroups, both subgroups ultimately achieved a pain NRS score of approximately 4.

[2] = system: NGF-induced thermal hyperalgesia; test: NGF-induced thermal hyperalgesia in rats (plantar test, paw withdrawal latency); assay type: in vivo, rat
Method: In order to induce a pain-related behavior (withdrawal behavior), NGF was injected into the plantar area of the left hind paw of rats and the thermal latencies/mechanical thresholds were measured. The effects of Compound A on these withdrawal behaviors were investigated. At 2 days before the injection of NGF, the thermal latencies or mechanical thresholds were measured for acclimation to the experimental environment. On the day before injection of NGF, body weights and values of the thermal latencies or mechanical thresholds were obtained. 50 μL of NGF solution was injected intraplantar to left hind paw of rats. 0.5 μg/site of NGF was selected in the evaluation of thermal stimuli and 1 μg/site was selected in that of mechanical stimuli. A monohydrochloride of Compound A (1, 3, or 10 mg/kg) was administered orally at the same time as the NGF injection. The latencies to thermal stimuli were measured at 3 and 6 hours after injection of NGF solution, and the thresholds to mechanical stimuli were measured at 1, 3 and 6 hours after injection of NGF solution. The evaluation was performed as a blind test of each group. The thermal latency was measured using a plantar test apparatus. An infrared heat stimuli was delivered to the plantar area of the hind paw and the time to withdraw the paw from the heat source was recorded automatically as the thermal latency. The measurement was performed 5 times for both hind paws of each animal, the averages of the last 3 values in each hind paw were accounted as the thermal latencies of each animal. The measurement for acclimation was performed only 3 times.

[3] = system: rats with CYP-induced cystitis; test: Rat CYP-induced cystitis model, frequent urination by cystometry; assay type: in vivo; settings: 2 or 6 mg/mL solutions at 5 mL/kg oral twice a day Day 1-2, cystometry Day 3
Method: The effect of Compound A on frequent urination, calculated by single voided volume and intermicturition interval, was evaluated using a rat CYP-induced cystitis model. The evaluation was performed according to G M. Herrera et al., PLoS ONE 5 (8): e12298. Female CD (SD) rats (Charles River Laboratories Japan, Inc.) were used as the experimental animals. A monohydrochloride of Compound A was dissolved in 0.5% MC to prepare 2 mg/mL and 6 mg/mL solutions of Compound A.
30 mg/mL of CYP (Sigma) dissolved in saline was intraperitoneally administered in the vehicle group and Compound A group and saline was intraperitoneally administered in the sham group at 5 mL/kg (Day 1).
0.5% (w/v) MC was orally administered once a day for 2 days (Day 1-2) in the sham group and vehicle group at 5 mL/kg, and 2 mg/mL or 6 mg/mL solutions of Compound A was orally administered twice a day (Day 1-2) in the Compound A administration group at 5 mL/kg.
Intravesical pressure and voided volume were measured by cystometry on Day 3, and single voided volumes and intermicturition intervals were calculated. Mean values were calculated for each group from individual single voided volumes and intermicturition intervals, and the results are shown in FIG. 12A and FIG. 12B, respectively.

[4] = system: NGF-induced mechanical hyperalgesia; test: NGF-induced mechanical hyperalgesia in rats (pressure analgesy-meter, paw withdrawal threshold); assay type: in vivo, rat
Method: In order to induce a pain-related behavior (withdrawal behavior), NGF was injected into the plantar area of the left hind paw of rats and the thermal latencies/mechanical thresholds were measured. The effects of Compound A on these withdrawal behaviors were investigated. At 2 days before the injection of NGF, the thermal latencies or mechanical thresholds were measured for acclimation to the experimental environment. On the day before injection of NGF, body weights and values of the thermal latencies or mechanical thresholds were obtained. 50 μL of NGF solution was injected intraplantar to left hind paw of rats. 0.5 μg/site of NGF was selected in the evaluation of thermal stimuli and 1 μg/site was selected in that of mechanical stimuli. A monohydrochloride of Compound A (1, 3, or 10 mg/kg) was administered orally at the same time as the NGF injection. The latencies to thermal stimuli were measured at 3 and 6 hours after injection of NGF solution, and the thresholds to mechanical stimuli were measured at 1, 3 and 6 hours after injection of NGF solution. The evaluation was performed as a blind test of each group. The mechanical threshold was measured using a pressure analgesy-meter. A mechanical stimulus (pressure) increased at a constant rate was added to the hind paw, and the pressure under load until animals withdrew its hind paw or vocalization was recorded as the mechanical threshold (mmHg).

[5] = rheumatoid arthritis subjects, 50-200 mg oral once daily
[6] = at 6 hours after NGF injection, oral
[7] = compared with the vehicle, 1, 3, 10 mg/kg oral, dose related

For `C[C@@H](C(=O)N(C)c1ccc2cc(-c3n[nH]c4c3CCC(C)(C)C4)[nH]c2c1)N1CCOCC1` [Compound A, N-[2-(6,6-dimethyl-4,5,6,7-tetrahydro-1H-indazol-3-yl)-1H-indol-6-yl]-N-methyl-(2S)-2-(morpholin-4-yl)propanamide], the “pain NRS score ultimately achieved” value ([1]; both lower (<8.0) and higher (≥8.0) baseline pain NRS subgroups, 50-200 mg oral once daily for 12 weeks) was “approximately 4”, the “duration of anti-pain effects (long-lasting)” value [1, 5] was 12 weeks and the “time to anti-pain effects (rapid)” value [1, 5] was ≤ 2 weeks. The “pain in subjects having severe pain” value ([1]; subjects having pain greater than or equal to 8 on the NRS scale) was “reduce pain”, the “decrease in pain NRS by baseline pain subgroup” value ([1]; subjects with higher baseline pain levels (NRS≥8.0) versus lower (NRS<8.0)) was “Larger decreases in pain NRS were observed in subjects that began treatment with higher baseline pain levels” and the “dose from which significant effects were observed (thermal latency)” value [2, 6] was ≥ 3 mg/kg. The “effect on the decrease in the thermal latencies induced by NGF” value [2, 7] was “prevented the decrease in the thermal latencies induced by NGF”, the “frequent urination (single voided volume, intermicturition interval)” value [3] was “suppressed frequent urination” and the “dose from which significant effects were observed (mechanical threshold)” value [4, 6] was ≥ 3 mg/kg. The “effect on the decrease in the mechanical thresholds induced by NGF” value [4, 7] was “prevented the decrease in the mechanical thresholds induced by NGF”.
